# Reference: US20180214393A1, “METHODS FOR TREATING CANCER” (RADIUS PHARMACEUTICALS, INC., priority 2015, published 2018)
# “Also recorded” adds a separate entry of the source. Structures can show the parent of a compound that is named as a salt.
# Legend:
# T47D cell lines = experiment: ER degradation and ER signaling (PGR, GREB1, TFF1) in T47D cell lines; assay type: cell-based, human
# Procedure: Cells were harvested and protein expression was analyzed using standard practice. Tumors were harvested at the indicated time points after the last day of dosing, homogenized in RIPA buffer with protease and phosphatase inhibitors using a Tissuelyser (Qiagen). Equal amounts of protein were separated by MW, transferred to nitrocellulose membranes and blotted with the following antibodies using standard practice: • Estrogen receptor (Santa Cruz (HC-20); sc-543) • Progesterone receptor (Cell Signaling Technologies; 3153) • Vinculin (Sigma-Aldrich, v9131)
# qPCR analyses were performed as follows: Cells were harvested, mRNA was extracted, and equal amounts used for cDNA synthesis and qPCR with primers specific for progesterone receptor, GREB1, and TFF1 (LifeTech). Bands were quantified using 1D Quant software (GE).
# Three ER target genes, progesterone receptor (PgR), growth regulation by estrogen in breast cancer 1 (GREB1) and trefoil factor 1 (TFF 1), were used as markers.
# [1] = Phase 1 dose escalation study in healthy postmenopausal women, treatment related AEs, oral daily for 7 days; assay type: in vivo
# Procedure: The subjects were 40-75 years old with BMI of 18.0-30 kg/m^2. Subjects having evidence of clinically relevant pathology, increased risk of stroke or of history venous thromboembolic events, or use of concomitant medication less than 14 days prior to admission to clinical research center (paracetamol allowed up to 3 days prior) were excluded.
# The subjects were treated with placebo or at least one oral dose daily after a light breakfast for 7 days at dose levels of 200 mg, 500 mg, 750 mg and 1000 mg, respectively.
smiles,measurement,setting,value
"CCNCCc1ccc(CN(CC)c2cc(OC)ccc2[C@@H]2CCc3cc(O)ccc3C2)cc1 [RAD1901, (6R)-6-(2-(N-(4-(2-(ethylamino)ethyl)benzyl)-N-ethylamino)-4-methoxyphenyl)-5,6,7,8-tetrahydronaphthalen-2-ol dihydrochloride]","ER signaling (PgR, GREB1, TFF1)",T47D cell lines,inhibited ER signaling
same,ER degradation,T47D cell lines; 0.001-1 μM,nearly complete ER degradation
same,"Abdominal discomfort AE, %",[1]; 200 mg Gr1,(20) %
same,"Abdominal distension AE, %",[1]; 200 mg Gr1,(7) %
same,"Abdominal pain AE, %",[1]; 200 mg Gr1,(13) %
same,"Dizziness AE, %",[1]; 200 mg Gr1,(7) %
same,"Dyspepsia AE, %",[1]; 200 mg Gr1,(20) %
same,"Flatulance AE, %",[1]; 200 mg Gr1,(13) %
same,"Headache AE, %",[1]; 200 mg Gr1,(20) %
same,"Hiccups AE, %",[1]; 200 mg Gr1,(7) %
same,"Hot flush AE, %",[1]; 200 mg Gr1,(13) %
same,"Myalgia AE, %",[1]; 200 mg Gr1,(13) %
same,"Nausea AE, %",[1]; 200 mg Gr1,(33) %
same,"Odynophagia AE, %",[1]; 200 mg Gr1,(13) %
same,"Salivary hyper-secretion AE, %",[1]; 200 mg Gr1,(13) %
same,"Sensation of a foreign body AE, %",[1]; 200 mg Gr1,(13) %
same,"Vomiting AE, %",[1]; 200 mg Gr1,(13) %
same,"Abdominal distension AE, %",[1]; 200 mg Gr2,(7) %
same,"Abdominal pain AE, %",[1]; 200 mg Gr2,(13) %
same,"Myalgia AE, %",[1]; 200 mg Gr2,(7) %
same,"Oesophageal pain AE, %",[1]; 200 mg Gr2,(13) %
same,"Abdominal distension AE, %",[1]; 500 mg Gr1,(7) %
same,"Abdominal pain AE, %",[1]; 500 mg Gr1,(21) %
same,"Diarrhoea AE, %",[1]; 500 mg Gr1,(21) %
same,"Dizziness AE, %",[1]; 500 mg Gr1,(14) %
same,"Dyspepsia AE, %",[1]; 500 mg Gr1,(36) %
same,"Dysphagia AE, %",[1]; 500 mg Gr1,(7) %
same,"Flatulance AE, %",[1]; 500 mg Gr1,(14) %
same,"Headache AE, %",[1]; 500 mg Gr1,(7) %
same,"Hiccups AE, %",[1]; 500 mg Gr1,(29) %
same,"Hot flush AE, %",[1]; 500 mg Gr1,(43) %
same,"Nausea AE, %",[1]; 500 mg Gr1,(21) %
same,"Odynophagia AE, %",[1]; 500 mg Gr1,(7) %
same,"Oesophageal pain AE, %",[1]; 500 mg Gr1,(7) %
same,"Salivary hyper-secretion AE, %",[1]; 500 mg Gr1,(14) %
same,"Sensation of a foreign body AE, %",[1]; 500 mg Gr1,(7) %
same,"Vomiting AE, %",[1]; 500 mg Gr1,(7) %
same,"Dyspepsia AE, %",[1]; 500 mg Gr2,(14) %
same,"Dysphagia AE, %",[1]; 500 mg Gr2,(14) %
same,"Headache AE, %",[1]; 500 mg Gr2,(7) %
same,"Myalgia AE, %",[1]; 500 mg Gr2,(7) %
same,"Nausea AE, %",[1]; 500 mg Gr2,(14) %
same,"Odynophagia AE, %",[1]; 500 mg Gr2,(7) %
same,"Oesophageal pain AE, %",[1]; 500 mg Gr2,(21) %
same,"Vomiting AE, %",[1]; 500 mg Gr2,(36) %
same,"Vomiting AE, %",[1]; 500 mg Gr3,(7) %
same,"Abdominal discomfort AE, %",[1]; 750 mg Gr1,(13) %
same,"Abdominal distension AE, %",[1]; 750 mg Gr1,(13) %
same,"Abdominal pain AE, %",[1]; 750 mg Gr1,(13) %
same,"Dizziness AE, %",[1]; 750 mg Gr1,(13) %
same,"Dyspepsia AE, %",[1]; 750 mg Gr1,(50) %
same,"Dysphagia AE, %",[1]; 750 mg Gr1,(38) %
same,"Flatulance AE, %",[1]; 750 mg Gr1,(13) %
same,"Headache AE, %",[1]; 750 mg Gr1,(38) %
same,"Hiccups AE, %",[1]; 750 mg Gr1,(25) %
same,"Hot flush AE, %",[1]; 750 mg Gr1,(25) %
same,"Myalgia AE, %",[1]; 750 mg Gr1,(13) %
same,"Nausea AE, %",[1]; 750 mg Gr1,(25) %
same,"Oesophageal pain AE, %",[1]; 750 mg Gr1,(13) %
same,"Salivary hyper-secretion AE, %",[1]; 750 mg Gr1,(25) %
same,"Abdominal discomfort AE, %",[1]; 750 mg Gr2,(13) %
same,"Dysphagia AE, %",[1]; 750 mg Gr2,(13) %
same,"Nausea AE, %",[1]; 750 mg Gr2,(13) %
same,"Vomiting AE, %",[1]; 750 mg Gr2,(25) %
same,"Abdominal distension AE, %",[1]; 1000 mg Gr1,(29) %
same,"Abdominal pain AE, %",[1]; 1000 mg Gr1,(14) %
same,"Diarrhoea AE, %",[1]; 1000 mg Gr1,(43) %
same,"Dizziness AE, %",[1]; 1000 mg Gr1,(14) %
same,"Dyspepsia AE, %",[1]; 1000 mg Gr1,(14) %
same,"Headache AE, %",[1]; 1000 mg Gr1,(29) %
same,"Hiccups AE, %",[1]; 1000 mg Gr1,(29) %
same,"Hot flush AE, %",[1]; 1000 mg Gr1,(14) %
same,"Nausea AE, %",[1]; 1000 mg Gr1,(57) %
same,"Odynophagia AE, %",[1]; 1000 mg Gr1,(14) %
same,"Oesophageal pain AE, %",[1]; 1000 mg Gr1,(14) %
same,"Salivary hyper-secretion AE, %",[1]; 1000 mg Gr1,(29) %
same,"Sensation of a foreign body AE, %",[1]; 1000 mg Gr1,(57) %
same,"Abdominal pain AE, %",[1]; 1000 mg Gr2,(14) %
same,"Diarrhoea AE, %",[1]; 1000 mg Gr2,(14) %
same,"Dyspepsia AE, %",[1]; 1000 mg Gr2,(14) %
same,"Nausea AE, %",[1]; 1000 mg Gr2,(29) %
same,"Odynophagia AE, %",[1]; 1000 mg Gr2,(14) %
same,"Oesophageal pain AE, %",[1]; 1000 mg Gr2,(14) %
same,"Vomiting AE, %",[1]; 1000 mg Gr2,(43) %
same,"Oesophageal pain AE, %",[1]; 1000 mg Gr3,(14) %
same,dose limiting toxicities,"[1]; 200-1000 mg, 7 days, dihydrochloride",No dose limiting toxicities were observed; also recorded: No dose limiting toxicites (DLT) were observed
same,"Abdominal discomfort AE, %",[1]; Total Active Gr1,(9) %
same,"Abdominal distension AE, %",[1]; Total Active Gr1,(11) %
same,"Abdominal pain AE, %",[1]; Total Active Gr1,(16) %
same,"Diarrhoea AE, %",[1]; Total Active Gr1,(14) %
same,"Dizziness AE, %",[1]; Total Active Gr1,(11) %
same,"Dyspepsia AE, %",[1]; Total Active Gr1,(30) %
same,"Dysphagia AE, %",[1]; Total Active Gr1,(9) %
same,"Flatulance AE, %",[1]; Total Active Gr1,(11) %
same,"Headache AE, %",[1]; Total Active Gr1,(20) %
same,"Hiccups AE, %",[1]; Total Active Gr1,(20) %
same,"Hot flush AE, %",[1]; Total Active Gr1,(25) %
same,"Myalgia AE, %",[1]; Total Active Gr1,(7) %
same,"Nausea AE, %",[1]; Total Active Gr1,(32) %
same,"Odynophagia AE, %",[1]; Total Active Gr1,(9) %
same,"Oesophageal pain AE, %",[1]; Total Active Gr1,(7) %
same,"Salivary hyper-secretion AE, %",[1]; Total Active Gr1,(18) %
same,"Sensation of a foreign body AE, %",[1]; Total Active Gr1,(16) %
same,"Vomiting AE, %",[1]; Total Active Gr1,(7) %
same,"Abdominal discomfort AE, %",[1]; Total Active Gr2,(2) %
same,"Abdominal distension AE, %",[1]; Total Active Gr2,(2) %
same,"Abdominal pain AE, %",[1]; Total Active Gr2,(7) %
same,"Diarrhoea AE, %",[1]; Total Active Gr2,(2) %
same,"Dyspepsia AE, %",[1]; Total Active Gr2,(7) %
same,"Dysphagia AE, %",[1]; Total Active Gr2,(7) %
same,"Headache AE, %",[1]; Total Active Gr2,(2) %
same,"Myalgia AE, %",[1]; Total Active Gr2,(5) %
same,"Nausea AE, %",[1]; Total Active Gr2,(11) %
same,"Odynophagia AE, %",[1]; Total Active Gr2,(5) %
same,"Oesophageal pain AE, %",[1]; Total Active Gr2,(14) %
same,"Vomiting AE, %",[1]; Total Active Gr2,(23) %
same,"Oesophageal pain AE, %",[1]; Total Active Gr3,(2) %
same,"Vomiting AE, %",[1]; Total Active Gr3,(2) %
same,"Abdominal discomfort AE, %",[1]; Total TEAE All,(11) %
same,"Abdominal distension AE, %",[1]; Total TEAE All,(14) %
same,"Abdominal pain AE, %",[1]; Total TEAE All,(23) %
same,"Diarrhoea AE, %",[1]; Total TEAE All,(16) %
same,"Dizziness AE, %",[1]; Total TEAE All,(11) %
same,"Dyspepsia AE, %",[1]; Total TEAE All,(36) %
same,"Dysphagia AE, %",[1]; Total TEAE All,(16) %
same,"Flatulance AE, %",[1]; Total TEAE All,(11) %
same,"Headache AE, %",[1]; Total TEAE All,(23) %
same,"Hiccups AE, %",[1]; Total TEAE All,(20) %
same,"Hot flush AE, %",[1]; Total TEAE All,(25) %
same,"Myalgia AE, %",[1]; Total TEAE All,(11) %
same,"Nausea AE, %",[1]; Total TEAE All,(43) %
same,"Odynophagia AE, %",[1]; Total TEAE All,(14) %
same,"Oesophageal pain AE, %",[1]; Total TEAE All,(23) %
same,"Salivary hyper-secretion AE, %",[1]; Total TEAE All,(18) %
same,"Sensation of a foreign body AE, %",[1]; Total TEAE All,(16) %
same,"Vomiting AE, %",[1]; Total TEAE All,(32) %
